# Results from PMC10194981, “Chemosensory protein regulates the behavioural response of Frankliniella intonsa and Frankliniella occidentalis to tomato zonate spot virus–Infected pepper (Capsicum annuum)” (PLOS Pathogens, 2023).
# Tested on: F. intonsa
# Experiment: Y-tube olfactometer preference test
# Assay type: in vivo, Frankliniella intonsa
# Protocol: F. intonsa and F. occidentalis preference tests of plant volatile cues were performed using a glass Y-tube olfactometer according to the method described by Wang et al. (2014) with minor modifications. A Y-shaped tube (1-cm inner diameter) consisted of a central tube (10 cm in length) and two arms (10 cm in length, offset by 60°) connected to two different glass odor bottles. One glass odor bottle was 50 cm in height, with a 10-cm inner diameter that contained pepper plants (14-day post-viral infection); the other glass odor bottle was 5 cm in height, with a 3-cm inner diameter for plant VOCs. The airflow in the olfactometer (200 mL/min) was filtered through activated carbon and calibrated using a flow meter at the end of each arm. To remove all visual cues, the Y-tube was positioned horizontally in a black airtight cubic box (90 cm × 60 cm × 40 cm). The tested odor sources (pepper plant VOCs) were enclosed in the odor bottles 5 min prior to each test to allow the odors to fill the arms. Thrips (2-day-old, starved for 1 h) were individually placed in the central tube and allowed to choose between the two arms. When the thrips had climbed over 2/3 of the side arm and stayed there for more than 30 s, it was considered to have made a selection. If the thrips had not made a choice after being placed in the straight arm for 5 min, the insect behaviour was scored as “no selection,” and it was not counted in the total data. The direction of the Y-tube arms and the silicone tubes were adjusted after five tested thrips to eliminate the influence of position. The Y-tube was replaced after 10 tested thrips to eliminate the possible influence of existing odors on thrips behaviour. Each treatment consisted of 20 thrips, with three replicates per treatment.
# The FintCSP1, FintCSP2, FintOBP, FintOR, FoccCSP, and enhanced green fluorescent protein (EGFP) coding sequences were obtained from GenBank under accession numbers MT199111, MT211602, OK067245, MT211603, AEP27186.1, and U55761.1, respectively. Primers were designed using Primer Premier 5.0, and the T7 promoter sequence (5′-[…]-3′) was added to the 5′ end of each primer (S1 Table). DNA fragments containing T7 promoter sequences were amplified by PCR using pEASY-T1/target gene or pUC-EGFP (preserved in the laboratory) plasmid DNA as template. Then, a double-stranded RNA (dsRNA) was produced from each target gene using the HiScribe T7 Quick High Yield RNA Synthesis Kit (New England Biolabs) according to the manufacturer’s instructions. […]
compound,measurement,setting,value
CC/C=C\CC=O [cis-3-hexenal],individuals that recognized the compound,"dsEGFP-treated F. intonsa, vs liquid paraffin control",73.3%
same,preference of FintCSP1-silenced thrips (in words),"dsFintCSP1-injected F. intonsa, vs liquid paraffin control",no preference
same,preference of F. intonsa in Y-tube olfactometer (in words),"volatile compound vs liquid paraffin control, n = 60",reached statistical significance
